Source: US5958947A, “DNA-affinic hypoxia selective cytotoxins” (priority 1996, dated 1999)
Values joined by “and” are separate entries in the source; they are usually repeats but may differ in a detail not shown here. Identical values can stand only once. Counter-ions that a name gives are not always drawn. Like-named read-outs stand apart in the source and are kept apart here.

Columns and labels:
[1] = in vivo; cited from earlier work
[2] = tested on: V79 Chinese hamster lung cells; conditions: intracellular concentration for an SER of 1.6, hypoxic cells; no experiment described; cited from earlier work
[3] = Water solubility
[4] = tested on: V79 Chinese hamster lung cells; experiment: Radiosensitization of V79 cells; assay type: cell-based; conditions: for EC (SER 1.6): Cricetulus griseus; for maximum SER value: hypoxic V79 cells, 100 μM for THNLA-1, non-toxic concentrations for others; for Therapeutic index (ThI): IC50/A,1h /C1.6: in vitro, V79 cells, hydrochloride
Protocol: (§1) Samples of V79 Chinese hamster lung cells used in the following experiments were prepared as follows. V79 cells, exponentially growing as monolayer cultures in RPMI 1640 medium (Mediatech) supplemented with 10% fetal calf serum, were trypsinized, centrifuged for 5 min, harvested, then suspended in 25 ml Erlenmeyer flasks fitted with rubber caps at 5×10^5 cells/ml (5 ml). Individual flasks either were shaken (100 rpm) at 37° C. under aerobic conditions or made hypoxic by gassing with a 95% N2 (nitrogen)/5% CO2 (carbon dioxide) humidified gas mixture for 1 hour.
Radiosensitization studies were performed on V79 cells in a manner similar to the acute toxicity experiments, except that the survival fraction was determined after a predetermined radiation dose. […] One Gy is equal to 100 rads, wherein one rad is the quantity of ionizing radiation that results in the absorption of 100 ergs of energy per gram of irradiated material. Hypoxia was maintained throughout irradiation. […] Sensitization enhancement ratios (SER) were determined at a 10% survival level. […] The plotted points in FIGS. 3 and 4 represent the mean of 2 or 3 replicate experiments.

[5] = tested on: V79 cells; experiment: Isoeffective to the oxygen dose (IsD); assay type: cell-based, Chinese hamster; conditions: Cricetulus griseus, V79, 1 h
From the text: The survival fraction under hypoxic conditions (plotted versus compound concentration) meets the aerobic survival fraction (radiation toxicity) at the IsD. The IsD value is a useful indicator of the overall potency of a compound as a sensitizer and cytotoxin of hypoxic cells. IsD is especially useful when comparing different compounds for hypoxic cytotoxicity and radiosensitizing efficacy.
FIGS. 5 and 6 illustrate the IsD at 7.5 Gy (FIG. 5A) and 20 Gy (FIG. 5B). FIGS. 5A and 6A include a comparison to the prior art NLA-1 compound. V79 cells were irradiated at 7.5 Gy or 20 Gy after a 1 hour exposure under hypoxia (symbols) or air (straight line), at various drug concentrations. No toxicity or radiosensitization for any tested compound was observed under aerobic conditions over the tested concentration ranges. IsD values were calculated from the intersections of the survival fractions of the hypoxic curves with the survival fraction in air. All data points in FIGS. 5 and 6 represent the mean of two replicate experiments.

[6] = Partition coefficient in octanol/water; assay type: physicochemical
Protocol: The partition coefficient of the hypoxia selective cytotoxins of the present invention were determined by the method of T. Fujita et al., J. Am. Chem. Soc., 86, 5175-5180 (1964), incorporated herein by reference.

[7] = tested on: supercoiled DNA; experiment: DNA intercalation by agarose gel electrophoresis (mobility of supercoiled DNA); assay type: binding; conditions: electrophoretic gel, up to millimolar concentrations
From the text: An agarose gel electrophoresis technique was used to determine whether THNLA-1 intercalates DNA. Compounds that strongly intercalate DNA retard DNA mobility during agarose gel electrophoresis due to unwinding and extension of the dsDNA.

[8] = biological target: T1, calf thymus Topo I (Bos taurus, UniProt F1MN93); experiment: Topoisomerase I interaction (relaxation of supercoiled DNA); assay type: biochemical
T1 construct: purchased TopoGEN, Inc., Columbus, Ohio; host or cells: calf thymus
T1 sequence (F1MN93 1-767): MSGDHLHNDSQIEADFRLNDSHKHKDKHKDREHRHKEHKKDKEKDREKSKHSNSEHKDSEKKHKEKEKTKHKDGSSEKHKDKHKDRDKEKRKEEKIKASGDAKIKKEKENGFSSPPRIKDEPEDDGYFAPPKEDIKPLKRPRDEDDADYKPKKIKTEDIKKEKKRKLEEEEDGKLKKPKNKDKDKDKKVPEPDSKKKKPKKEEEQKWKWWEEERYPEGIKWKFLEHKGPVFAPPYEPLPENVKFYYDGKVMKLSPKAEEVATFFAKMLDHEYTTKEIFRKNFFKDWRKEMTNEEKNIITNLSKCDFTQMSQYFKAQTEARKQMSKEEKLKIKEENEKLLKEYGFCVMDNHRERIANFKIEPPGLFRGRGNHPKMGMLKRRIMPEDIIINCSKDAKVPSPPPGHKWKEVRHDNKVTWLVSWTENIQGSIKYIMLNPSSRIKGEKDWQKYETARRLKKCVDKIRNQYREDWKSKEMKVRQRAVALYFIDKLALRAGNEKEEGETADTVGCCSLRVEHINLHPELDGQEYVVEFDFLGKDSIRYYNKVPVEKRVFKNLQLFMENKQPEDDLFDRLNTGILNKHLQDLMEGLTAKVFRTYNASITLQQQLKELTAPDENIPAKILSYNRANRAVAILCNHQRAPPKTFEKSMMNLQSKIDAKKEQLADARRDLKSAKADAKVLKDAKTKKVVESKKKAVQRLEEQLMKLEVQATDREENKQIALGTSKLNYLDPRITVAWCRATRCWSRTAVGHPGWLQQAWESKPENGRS
Protocol: In particular, a Topo I drug screening kit (TopoGEN, Inc., Columbus, Ohio) was used to assay the topoisomerase I THNLA-1 interaction. […] Camptothecin is a Topoisomerase I poison used as an anticancer drug. Camptothecin stabilizes the Topo I-DNA cleavable complex, and therefore prevents the resealing of DNA by Topo-I.
Individual reaction mixtures were heated for 30 minutes at 37° C. on a heating block, and then 2 μl of 10% SDS - proteinase K solution was added to each reaction mixture. The resulting reaction mixtures then were heated for an additional 30 minutes at 37° C. The reaction mixtures in a loading buffer were extracted with CHCl3 prior to submarine electrophoresis on a 1% agarose gel. The DNA bands were observed visually by staining with ethidium bromide (0.5 μg/ml).

[9] = Acute aerobic and hypoxic cytotoxicity (colony formation); assay type: cell-based, Chinese hamster; conditions: chinese hamster, aerobic v79 cells, V79 cells, aerobic, 1 hour, 37° C.; 50% inhibition of clonogenicity
Protocol: as §1
(§2) To determine the fraction of surviving cells, samples were removed, diluted and plated to provide 2×10^2 to 2×10^4 cells/well on 60 mm Linbro multi-well plates (Flow Laboratories, McLean, Virginia). The plates were incubated at 37° C. for 6 days, stained with crystal violet and examined for colony formation. Colonies of 50 cells or greater were counted. Each plotted point in FIGS. 1 and 2 represent the mean of three or four replicate experiments.

[10] = tested on: V79 Chinese hamster lung cells; experiment: as above; assay type: cell-based; conditions: V79 cells, 1 hour, 37° C.; for IC50: Cricetulus griseus, V79, 1 h, hypoxia, 50% inhibition of clonogenicity
Protocol: as §1, §2

[11] = tested on: human Topo II; experiment: Topoisomerase II interaction (decatenation of kinetoplast DNA); assay type: biochemical; conditions: up to 1 mM
Protocol: A Topo II assay kit (TopoGEN, Inc., Columbus, Ohio) also was used to assay the topoisomerase II--THNLA-1 interaction. […] Individual reaction mixtures were heated for 30 minutes at 37° C. on a heating block, and then 2 μl of a 10% SDS-proteinase K solution was added to each reaction mixture. The resulting reaction mixtures then were heated for an additional 30 minutes at 37° C. After addition of a 0.1 volume of loading buffer, the reaction mixtures were extracted with CHCl3 prior to submarine electrophoresis on a 1% agarose gel containing ethidium bromide (0.5 μg/ml).

[12] = tested on: V79 cells; experiment: Chemosensitization to L-PAM or cis-DDP in V79 cells; assay type: cell-based, Chinese hamster; conditions: V79 cells
Protocol: L-PAM, also known as phenylalanine mustard and available from Sigma Chem. Co., St. Louis, Mo., first was dissolved in an ethanolic solution of HCl (0.5N). The ethanolic HCl solution was buffered with propylene glycol in a 1:9 ratio of ethanolic HCl solution to propylene glycol, and finally diluted 100 fold with suspension medium. cis-DDP, a platinum-based chemotherapeutic agent available from Sigma Chem. Co., St. Louis, Mo., was dissolved in water to a predetermined concentration.
Experiments using a simultaneous addition of the sensitizer and chemotherapeutic agent for 1 hour at 37° C. under aerobic conditions were also performed.
In all experiments, controls for the hypoxic cytotoxicity of the sensitizer and the toxicity of the chemotherapeutic alone were included. Survival curves were normalized for the hypoxic cytotoxicity of sensitizer in order to determine the dose modification factor (DMF), i.e., the ratio of chemotherapeutic agent concentrations required to reduce cell survival to a predetermined level (e.g., 0.5) alone or in combination with a sensitizer. Synergism between the chemotherapeutic agent and the chemosensitizer was determined using the fractional product concept which is applied in instances of independent action of drugs, or by isobologramic analysis. The results of the chemosensitization studies are illustrated in FIGS. 12-15.

[13] = tested on: hypoxic cells; conditions: cited from earlier work
[14] = tested on: mammalian cell cultures; conditions: cited from earlier work
[15] = cited from earlier work
[16] = tested on: DNA; conditions: cited from earlier work
[17] = V79, 1 h, read-out: Hypoxic radiosensitizing potency: C1.6, concentration yielding an SER of 1.6, hypoxic V79 cells
[18] = V79, read-out: Intracellular concentration at C1.6: C1.6i, hypoxic radiosensitization, V79 cells (tables)

COCC(O)Cn1ccnc1[N+](=O)[O-] (centres unmarked) [MISO]
neurotoxicity [1]: significant neurotoxicity | C1.6i of comparison sensitizers [2]: 0.70 mM

CN1CCc2nc3ccccc3c(NCCCn3ccnc3[N+](=O)[O-])c2C1 [MeN-THNLA-1, 10-[3-(2-nitroimidazolyl)propylamino]-2-methyl-1,2,3,4-tetrahydro-benzo[b]-1,6-naphthyridine hydrochloride]
solubility [3]: ~20 mM | EC (SER 1.6) [4, 17]: 59 µM | EC (SER 1.6) [4, 18]: 586 µM | maximum SER value [4]: equal to OER | Therapeutic index (ThI): IC50/A,1h /C1.6 [4]: about 7 | relative radiosensitizing potency ([4]; on the basis of C1.6i values): more potent radiosensitizer than NLA-1, miso and pimonidazole | EC (isoeffective to oxygen at 20 Gy) ([5]; read-out: Isoeffective to the oxygen dose at 20 Gy: IsD): ~127 µM | Partition coefficient in octanol/water: PCo/w ([6]; hydrochloride): 0.40 and 0.41 | effect on mobility of supercoiled DNA [7]: do not affect the mobility of supercoiled DNA | formation of nicked DNA with Topo I ([8]; in Topo I test): no formation of nicked DNA was observed | inhibition of Topo I-induced relaxation ([8]; supercoiled DNA): only partially inhibited Topo I | IC50 at 1 h [9]: 426 µM | IC50 [10]: 196 µM | Hypoxic selectivity (differential aerobic/hypoxic toxicity): IC50/A,1h /IC50/H,1h [10]: 2.2 | inhibition of Topo II-induced decatenation of kinetoplast DNA [11]: did not inhibit the action of Topoisomerase II on kinetoplast DNA

O=[N+]([O-])c1nccn1CCCNc1c2c(nc3ccccc13)CCC2 [NLCPQ-1, 9-[3-(2-nitro-1-imidazolyl)propylamino]cyclopenten[b]quinoline hydrochloride]
solubility [3]: ~11 mM | EC (SER 1.6) [4, 17]: 7 µM | EC (SER 1.6) [4, 18]: 209 µM | maximum SER value [4]: equal to OER | Therapeutic index (ThI): IC50/A,1h /C1.6 [4]: 25 | EC (isoeffective to oxygen at 7.5 Gy) ([5]; read-out: Isoeffective to the oxygen dose at 7.5 Gy: IsD(7.5)): 25.5 µM | Partition coefficient in octanol/water: PCo/w [6]: 0.30 | logP ([6]; read-out: Partition coefficient in octanol/water: PCo/w (converted)): -0.523 | IC50 at 1 h [9]: 170 µM | IC50 [10]: 22 µM | chemosensitization to L-PAM or cis-DDP [12]: strong chemosensitizers

O=[N+]([O-])c1nccn1CC(O)CN1CC1 (centres unmarked) [RSU-1069]
activity relative to MISO ([13]; experimental systems): substantially greater activity than MISO | fold lower toxic concentration for hypoxic versus aerobic cells ([13]; in vitro): ~100 fold

O=C(Cn1ccnc1[N+](=O)[O-])NCCO [etanidazole]
dose administrable to humans relative to MISO [1]: about a threefold higher dose than MISO | neurotoxicity [1]: less neurotoxic

CN(C)CCCNc1c2ccccc2nc2cccc([N+](=O)[O-])c12 [nitracrine, 1-nitro-acridine]
potency as radiation sensitizer / hypoxia selective cytotoxin [14]: potent hypoxia selective cytotoxin and a radiation sensitizer | potency as radiation sensitizer / hypoxia selective cytotoxin ([14]; listed as 1-nitracrine): twenty times more potent as a sensitizer than other nitracrine isomers tested | metabolism in vivo [15]: rapid metabolism | DNA dissociation kinetics / intercalation [16]: faster dissociation kinetics from DNA than the other nitroacridine isomers

O=[N+]([O-])c1nccn1CC(O)CN1CCCCC1 (centres unmarked) [pimonidazole]
dose administrable to humans relative to MISO [1]: total dose limitation similar to MISO | C1.6i of comparison sensitizers [2]: 0.69 mM
